According to patent US5972883A, “Method for the treatment of neurodegenerative diseases by administering VIP, an analogue, fragment or a conjugate thereof” (Yeda Research and Development Co. Ltd., priority 1993, dated 1999):
“And” between values parts separate entries of the source, which are not always exact repeats. Identical values can stand only once. “Also recorded” adds a separate entry of the source.

Assays:
[1] = tested on: electrically blocked neurons (mouse spinal cord neurons); assay type: cell-based
[2] = tested on: Neurons from rat cerebral cortex treated with β-amyloid peptide fragment 25-35; assay: Survival of neurons treated with fragment 25-35 of β-amyloid peptide
[3] = tested on: learning and memory in AF64A-injected rats; assay: Morris water maze, AF64A animal model of Alzheimer, I.C.V. drug administration; assay type: in vivo, rat; conditions: 100 ng I.C.V. daily
Procedure: 13 Male rats were injected intracerebroventricularly (I.C.V.) at a rate of 0.21 μl/min, using plastic tubing (PE-20) attached to 25G needle. 5 rats serving as control received an injection of saline (2 μl/side), 8 other animals received injections of ethylcholine aziridium (AF64A) (3 nmol/2 μl/side). AF64A is an inducer of cholinergic hypofunctions which mimics some of the cholinergic hypofunction reported in Alzheimer's disease and is used for preparing animal models of Alzheimer^(22).
Animals were cannulated following injection to allow I.C.V. drug application and left to recover for a week. Learning and memory tests were conducted using the swim maze test. The 8 animals injected with AF64A were divided into two equal groups and were thereafter injected daily with either saline or 100 ng I.C.V. of St-Nle^17 -VIP. The five control rats (see above) were injected with saline. Following seven injection days, behavioral assays were conducted for an additional 14 days on both control and test animals. […]
(§1) Rats were placed in a circular pool, 1.26 m in diameter, 0.2 m deep, equipped with a clear plexiglas column, with a 13.3 cm platform reaching just below the surface of the water (22-24° C.). […] The latency of reaching the platform was recorded for each rat (in seconds) and the changes over days of training were graphed, which reflect learning and memory.

[4] = tested on: learning and memory in old rats; assay: Learning and memory in old animals (water pool), nasal administration; assay type: in vivo, rat; conditions: rats aged 18-20 months, nasal 100 μg/40 μl/day
Procedure: 6 Male rats aged 18-20 months were divided into hvo groups. Group 1 received daily nasal administrations of St-Nle^17 -VIP dissolved in 10% sefsol at 40% isopropanol at a dose of 100 μg/40 μl/day (20 μl/nostril). Control animals were treated with daily nasal administration of 40 μl/day of 10% sefsol and 40% isopropanol (20 μl/nostril). The administration was carried out after partial anesthetization by diethylether. Animals were thus treated for 7-19 days and then were tested by placing them in a water pool as described above.

Sprague Dawley rats [5] = assay: Single dose toxicity, intravenously injected (tail vein); assay type: in vivo, rat
Description: The single dose toxicity of St-Nle^17 -VIP injected intravenously, in to the tail vein, was investigated in 4 groups of six male and six female rats (Sprague Dawley (S.D.) strain, purchased from Levinstein, Yokneam, Israel).

[6] = tested on: learning and memory in AF64A-treated rats; assay: Morris water maze, AF64A animal model of Alzheimer, nasal drug administration; assay type: in vivo, rat; conditions: daily nasal administration (St-Nle17-VIP 70 μg/40 μl; peptide 6 50 μg/40 μl)
Procedure: 8 Male rats were all treated with AF64A as described above. 10 days after AF64A administration 5 animals received daily nasal administration of St-Nle^17 -VIP dissolved in 10% sefsol and 40% isopropanol at a concentration of 70 μg/40 μl (20 μl administered through each nostril). 3 Animals received daily nasal administration of 50 μg/40 μI of peptide 6, (20 μl/nostril) dissolved in 10% sefsol and 40% isopropanol. 6 Control animals received daily nasal administration of 10% sefsol and 40% isopropanol at an amount of 40 μl/day (20 μl nostril). The animals were partially anesthetized by diethylether prior to nasal administration. Both control and test animals were daily treated with 50,000 units of durabiotic antibiotics to avoid infection. Following 7 days of nasal administration behavioral tests were conducted on both control and test animals for an additional 8 days. […]
as §1

Sprague Dawley rats [7] = assay: Repeated dose toxicity, topically applied, 13 weeks
[8] = Pharmacological experimentation: biologically active dose; assay type: in vivo; conditions: rat
Procedure: The logic of the dose design was as follows: pharmacological experimentation has shown that the biologically active dose is 7 μg per rat. The dose of 1000× the biologically active dose was chosen for this experiment.

[9] = Biodistribution following intranasal administration of radioiodinated peptide; assay type: in vivo, rat; conditions: rats
Procedure: St-Nle^17 -VIP was labeled with radioactive iodine and 3×10^6cpn/2 μl/rat of the labeled substance were applied intranasally to 250-300 g rats. Animals were sacrificed 15 mins. following drug administration.
Radioactive tissue samples were then homogenized and subjected to centrifugation (5,400×g for 25 mins.). Supernatants were then subjected to HPLC analysis against St-Nle^17 -VIP as a marker. Elution was carried out using acetonitrile gradient at fraction 30. Samples were then weighed and monitored for radioactivity in a gamma counter. To assess for the integrity of the incorporated St-Nle^17 -VIP radioactive tissue, supernatants were subjected to HPLC analysis. Radioactive tissue samples were hornogenized, subjected to centrifugation and supernatnants analyzed by HPLC fractionation against St-Nle-VIP as a marker (eluting using an acetonitrile gradient at fraction 30).

VIP receptor = assay: Affinity studies: displacement of radiolabeled VIP on cerebral cortical astrocytes; assay type: binding
Procedure: (a) Cerebral cortical astrocytes were obtained and cultured as described before^16,17). Binding studies were performed on intact cells, 5-7 days after replating at 4° C. in phosphate buffered saline containing 0.1% bovine serum albumin. Cells were divided into two groups. Group 1 was incubated with varying concentrations of St-VIP and Group 2 was incubated with varying concentrations of St-Nle^17 -VIP. After 30 min. incubation with the VIP analogue, 50 pM of ^125 -VIP^(14) was added and incubated for an hour. The media was then removed and cells were washed three times by rapid addition and removal of 1 ml phosphate buffered saline at 4° C. The labeled cells were then dissolved in 0.2 N NaOH and transferred for radioactivity counting by an automatic gamma counter (Wallac 1470 Wizard).

[10] = Stability of test material; assay type: physicochemical
Sprague Dawley rats [11] = assay: Single dose toxicity, orally administered; assay type: in vivo, rat
Description: The single dose toxicity of St-Nle^17 -VIP administered orally was investigated in 4 groups of six male and six female rats (Sprague Dawley (S.D.) strain, purchased from Levinstein, Yokneam, Israel.)

[12] = tested on: untreated neurons (cerebral cortical cultures); assay: Survival of untreated neurons (naturally occurring death), cerebral cortical cultures; assay type: cell-based; conditions: untreated rat cerebral cortical cultures
Procedure: (a) Cerebral cortical cultures were prepared by a slight modification of the techniques described by Forsythe and Westbrook, (a. Physiol. Lond. 396:515 (1988)), in which cerebral cortex was used instead of hippocampus and newborn rats were utilized instead of E16 mice. After nine days growth in vitro, the cultures were given a complete change of medium and treated with serial dilutions of either peptide 1, 2 or 6 in order to determine whether these peptides were effective in protecting neurons from naturally occurring death. Cerebral cortical cells were counted as above, however, only 40 fields per plate were counted comprising an area of 20 mm^2.
(a) Cells were prepared as described in Example 6. After nine days growth in vitro, the cultures were given a complete change of medium and treated with serial dilutions of peptide 5 or of peptide 3 in the presence and in the absence of 10^-8 M of a VIP antagonist described in detail in U.S. Pat. No. 5,217,953. One treatment was given at the beginning of a five day test period. Cell counts were performed on 100 fields, with a total area of 50 mm^2. Neurons were counted without knowledge of treatment.

[13] = i.v., 7 μg/rat + vehicle (group 3)
[14] = i.v., 7,000 μg/rat + vehicle (group 4)
[15] = displacement of radiolabeled VIP, intact astrocytes, 4° C.

Compound: CCCC[C@H](NC(=O)[C@H](CCC(N)=O)NC(=O)[C@H](CCCCN)NC(=O)[C@H](CCCNC(=N)N)NC(=O)[C@H](CC(C)C)NC(=O)[C@H](CCCNC(=N)N)NC(=O)[C@@H](NC(=O)[C@H](Cc1ccc(O)cc1)NC(=O)[C@H](CC(N)=O)NC(=O)[C@H](CC(=O)O)NC(=O)[C@@H](NC(=O)[C@H](Cc1ccccc1)NC(=O)[C@@H](NC(=O)[C@H](C)NC(=O)[C@H](CC(=O)O)NC(=O)[C@H](CO)NC(=O)[C@@H](N)Cc1c[nH]cn1)C(C)C)[C@@H](C)O)[C@@H](C)O)C(=O)N[C@@H](C)C(=O)N[C@H](C(=O)N[C@@H](CCCCN)C(=O)N[C@@H](CCCCN)C(=O)N[C@@H](Cc1ccc(O)cc1)C(=O)N[C@@H](CC(C)C)C(=O)N[C@@H](CC(N)=O)C(=O)N[C@@H](CO)C(=O)N[C@H](C(=O)N[C@@H](CC(C)C)C(=O)N[C@@H](CC(N)=O)C(N)=O)[C@@H](C)CC)C(C)C [Nle^17 -VIP, Norleucine^17 -VIP]
- potency relative to native VIP in protecting electrically blocked cells from death [1]: about 10 fold

Compound: Stearoyl-noricucine^17 -VIP [St-Nle^17 -VIP]
- most effective protective concentration (peak activity) against β-amyloid associated death ([2]; 25 μM β-amyloid fragment 25-35): 10^-13 M
- protection of neurons from β-amyloid peptide fragment toxicity ([2]; 25 μM β-amyloid fragment 25-35, 5 days): able to protect neurons from the toxic effect of β-amyloid peptide fragment at all concentrations tested
- concentrations protecting also against naturally occurring cell death ([2]; FIG. 7 experiment): 10^-10 M and 10^-9 M
- learning and memory (latency of reaching the platform) [3]: showed recovery of the learning and memory abilities, essentially similar to that of control animals
- learning and memory (latency of reaching the platform) [4]: showed a greater improvement in the latency of reaching the platform over time as compared to control untreated animals
- animals with necrotic reaction at the site of injection (tail skin) (Sprague Dawley rats [5]; [13]): 58%
- mortality (Sprague Dawley rats [5]; [13]): No mortality occurred in groups 1 and 3
- animals with necrotic reaction at the site of injection (tail skin) (Sprague Dawley rats [5]; [14]): all the animals
- mortality (Sprague Dawley rats [5]; [14]): Seven rats (3 male and 4 female out of 12) died
- time of death after administration (Sprague Dawley rats [5]; [14]): ≤ 3 h
- other side effects in surviving rats (Sprague Dawley rats [5]; i.v., all groups): No other side effects were observed
- body weight gain versus vehicle control (Sprague Dawley rats [5]; i.v., two weeks study period): increased weight gain
- acute intravenous LD50, combined males and females (Sprague Dawley rats [5]; i.v., with vehicle, combined males and females): less than 7,000 μg
- acute intravenous LD50, males (Sprague Dawley rats [5]; i.v., with vehicle, male rats): 7,000 μg/male rat
- learning and memory (latency of reaching the platform) [6]: control animals (.quadrature.) show smaller improvement in the latency of reaching the platform
- potency relative to native VIP in protecting electrically blocked cells from death [1]: about 100 fold
- peak of active concentrations ([1]; 1 μM tetrodotoxin): broadening of the peak of active concentrations
- body weight gain or food consumption (Sprague Dawley rats [7]; topical daily): No significant differences were detected
- clinical pathology (hematology, clinical chemistry) (Sprague Dawley rats [7]; topical daily): No dose related or sex related biologically meaningful treatment effects were detected
- organ weight analysis (Sprague Dawley rats [7]; topical daily): No treatment related differences were noted
- adverse effects (Sprague Dawley rats [7]; topical daily for 13 weeks, 7, 700, 3500 μg): No dose related adverse effects were detected; also recorded: did not cause any serious adverse effects at any of the dosages tested
- mortality (Sprague Dawley rats [7]; topical daily, 7, 700, 3500 μg): No mortality associated with drug application was noted
- biologically active dose [8]: 7 μg per rat
- distribution to brain after nasal administration ([9]; 15 mins. after intranasal administration): able to reach the brain
- integrity of peptide in tissue (HPLC of radioactive supernatants) ([9]; intranasal): reaches its target organs in an active, intact form
- affinity to the high affinity receptor relative to VIP (VIP receptor; VIP value from reference 19): about 100 fold
- affinity relative to St-VIP, high concentration zone (low affinity zone) (VIP receptor; [15]): 10 fold
- affinity relative to St-VIP, low concentration (high affinity) zone (VIP receptor; [15]): 10 fold
- stability, powder [10]: for a year
- body weight gain and food consumption (Sprague Dawley rats [11]; oral single dose): normal body weight gain
- side effects (Sprague Dawley rats [11]; oral single dose): No necrotic reactions, or any other side effects were observed
- mortality (Sprague Dawley rats [11]; oral single dose, up to 7000 μg/rat): No mortality occurred
- acute oral LD50 (Sprague Dawley rats [11]; oral, rat): greater than 7000 μg/rat

Compound: fragment 25-35 of β-amyloid peptide: β-amyloid peptide fragment comprising amino acids in positions 25 to 35, toxic to neurons in culture (GSNKGAIIGLM; Amyloid-beta protein 42; UniProt P05067 696-706, looked up, fragment) [reference compound]
- number of living neurons per tested area ([2]; 25 μM fragment alone, 150 without fragment): 42 neurons

Compound: St-His-Ser-Asp-Gly-Ee-Phe-Thr-Asp-Ser-Tyr-Ser-Arg-Tyr-Arg-amide (stearyl-HSDGIFTDSYSRYR-NH2; not fully specified (residue 5); printed as St-His-Ser-Asp-Gly-Ee-Phe-Thr-Asp-Ser-Tyr-Ser-Arg-Tyr-Arg-amide) [peptide 1]
- concentrations protecting cells from naturally occurring death [12]: above 10^-8 M
